{"source": "paper PMC10879502", "about": "“Linking ATP and allosteric sites to achieve superadditive binding with bivalent EGFR kinase inhibitors” (Communications Chemistry, 2024)", "test_in_all_cases": "KINOMEscan", "assay_type_in_all_cases": "binding", "settings_in_all_cases": "1 μM", "key": {"OSR1": {"molecular_target": "OSR1 (Homo sapiens, UniProt O95747)", "sequence (O95747 whole entry)": "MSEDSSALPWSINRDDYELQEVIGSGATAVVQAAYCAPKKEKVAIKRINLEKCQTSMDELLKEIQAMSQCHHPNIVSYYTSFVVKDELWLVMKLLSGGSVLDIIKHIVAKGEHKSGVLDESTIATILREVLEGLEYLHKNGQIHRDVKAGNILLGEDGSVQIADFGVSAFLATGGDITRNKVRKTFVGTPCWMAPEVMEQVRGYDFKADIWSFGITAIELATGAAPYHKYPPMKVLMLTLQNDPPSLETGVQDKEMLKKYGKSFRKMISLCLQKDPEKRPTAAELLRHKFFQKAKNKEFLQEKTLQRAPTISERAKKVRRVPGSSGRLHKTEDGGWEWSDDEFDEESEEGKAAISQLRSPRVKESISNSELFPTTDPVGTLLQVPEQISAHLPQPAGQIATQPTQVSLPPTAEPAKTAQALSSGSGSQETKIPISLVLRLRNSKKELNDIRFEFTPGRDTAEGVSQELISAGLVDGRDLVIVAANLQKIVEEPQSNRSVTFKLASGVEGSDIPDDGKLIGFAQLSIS"}, "PRKR": {"molecular_target": "PRKR (Homo sapiens, UniProt P19525)"}, "RIPK5": {"molecular_target": "RIPK5 (Homo sapiens, UniProt Q6XUX3)"}, "[1]": {"molecular_target": "T1, ABL1(M351T)-phosphorylated (Homo sapiens, UniProt P00519, M351T)", "T1 construct": "purchased Eurofins DiscoverX Corporation"}, "[2]": {"molecular_target": "RSK3(Kin.Dom.2-C-terminal) (Homo sapiens, UniProt Q15349)"}, "MARK4": {"molecular_target": "T2, MARK4 (Homo sapiens, UniProt Q96L34)", "T2 construct": "purchased Eurofins DiscoverX Corporation"}, "SLK": {"molecular_target": "SLK (Homo sapiens, UniProt Q9H2G2)", "sequence (Q9H2G2 whole entry)": "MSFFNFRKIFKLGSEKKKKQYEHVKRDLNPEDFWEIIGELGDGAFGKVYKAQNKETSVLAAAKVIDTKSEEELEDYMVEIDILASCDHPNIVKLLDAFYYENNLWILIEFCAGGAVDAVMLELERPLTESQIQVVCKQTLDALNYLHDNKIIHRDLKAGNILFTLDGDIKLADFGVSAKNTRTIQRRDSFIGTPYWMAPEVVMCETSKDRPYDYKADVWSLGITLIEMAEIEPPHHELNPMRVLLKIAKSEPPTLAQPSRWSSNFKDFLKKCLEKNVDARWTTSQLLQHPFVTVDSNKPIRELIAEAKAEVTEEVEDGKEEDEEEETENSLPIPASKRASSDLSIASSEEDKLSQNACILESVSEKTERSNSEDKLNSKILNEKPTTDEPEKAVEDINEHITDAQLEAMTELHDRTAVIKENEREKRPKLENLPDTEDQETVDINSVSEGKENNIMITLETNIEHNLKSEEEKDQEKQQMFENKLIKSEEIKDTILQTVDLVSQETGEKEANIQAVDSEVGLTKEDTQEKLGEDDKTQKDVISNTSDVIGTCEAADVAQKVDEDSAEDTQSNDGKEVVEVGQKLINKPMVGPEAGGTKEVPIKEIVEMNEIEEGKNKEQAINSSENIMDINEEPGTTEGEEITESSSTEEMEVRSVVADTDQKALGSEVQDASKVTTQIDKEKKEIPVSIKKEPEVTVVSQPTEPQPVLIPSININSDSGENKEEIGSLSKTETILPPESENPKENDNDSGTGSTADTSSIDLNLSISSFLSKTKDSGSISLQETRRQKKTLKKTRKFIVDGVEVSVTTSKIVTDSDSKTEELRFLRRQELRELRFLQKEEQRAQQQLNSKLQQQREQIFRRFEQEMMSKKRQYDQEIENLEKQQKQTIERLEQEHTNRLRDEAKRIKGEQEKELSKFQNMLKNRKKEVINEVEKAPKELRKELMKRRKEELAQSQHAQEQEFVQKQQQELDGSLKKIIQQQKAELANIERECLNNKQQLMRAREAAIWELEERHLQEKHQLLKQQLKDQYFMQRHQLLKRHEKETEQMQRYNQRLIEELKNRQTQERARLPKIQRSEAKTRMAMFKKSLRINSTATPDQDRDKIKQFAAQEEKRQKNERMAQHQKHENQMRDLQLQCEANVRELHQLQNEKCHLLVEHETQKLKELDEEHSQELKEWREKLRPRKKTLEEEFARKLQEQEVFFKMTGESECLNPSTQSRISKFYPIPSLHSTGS"}, "INSRR": {"molecular_target": "T3, INSRR (Homo sapiens, UniProt P14616)", "T3 construct": "purchased Eurofins DiscoverX (KINOMEscan)"}, "MST3": {"molecular_target": "T4, MST3 (Homo sapiens, UniProt Q9Y6E0)", "T4 construct": "purchased Eurofins DiscoverX Corporation"}, "[3]": {"molecular_target": "RSK2(Kin.Dom.2-C-terminal) (Homo sapiens, UniProt P51812)", "sequence (P51812 422-679 limits assumed)": "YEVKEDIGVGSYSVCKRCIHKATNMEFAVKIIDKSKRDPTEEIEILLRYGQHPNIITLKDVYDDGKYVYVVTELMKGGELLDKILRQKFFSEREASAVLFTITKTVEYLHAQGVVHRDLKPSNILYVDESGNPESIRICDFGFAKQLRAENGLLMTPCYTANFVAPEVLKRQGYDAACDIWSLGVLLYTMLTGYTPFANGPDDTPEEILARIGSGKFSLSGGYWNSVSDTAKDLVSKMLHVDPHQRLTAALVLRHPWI"}, "IRAK1": {"molecular_target": "T5, IRAK1 (Homo sapiens, UniProt P51617)", "T5 construct": "purchased Eurofins DiscoverX (KINOMEscan)"}, "STK16": {"molecular_target": "STK16 (Homo sapiens, UniProt O75716)"}, "KIT(A829P)": {"molecular_target": "T6, KIT(A829P) (Homo sapiens, UniProt P10721, A829P)", "T6 construct": "purchased Eurofins DiscoverX (KINOMEscan)"}, "CSNK1G3": {"molecular_target": "T7, CSNK1G3 (Homo sapiens, UniProt Q9Y6M4)", "T7 construct": "purchased Eurofins DiscoverX Corporation"}, "JNK3": {"molecular_target": "T8, JNK3 (Homo sapiens, UniProt P53779)", "T8 construct": "purchased Eurofins DiscoverX (KINOMEscan)"}, "TSSK1B": {"molecular_target": "T9, TSSK1B (Homo sapiens, UniProt Q9BXA7)", "T9 construct": "purchased Eurofins DiscoverX Corporation"}, "ERK1": {"molecular_target": "ERK1 (Homo sapiens, UniProt P27361)"}, "EGFR(G719S)": {"molecular_target": "EGFR(G719S) (Homo sapiens, UniProt P00533, G719S)"}, "CAMK2D": {"molecular_target": "T10, CAMK2D (Homo sapiens, UniProt Q13557)", "T10 construct": "purchased Eurofins DiscoverX Corporation (KINOMEscan)"}, "MAP3K4": {"molecular_target": "T11, MAP3K4 (Homo sapiens, UniProt Q9Y6R4)", "T11 construct": "purchased Eurofins DiscoverX Corporation"}, "ANKK1": {"molecular_target": "ANKK1 (Homo sapiens, UniProt Q8NFD2)"}, "NEK6": {"molecular_target": "NEK6 (Homo sapiens, UniProt Q9HC98)"}, "MET(M1250T)": {"molecular_target": "T12, MET(M1250T) (Homo sapiens, UniProt P08581, M1250T)", "T12 construct": "purchased Eurofins DiscoverX Corporation"}, "PDPK1": {"molecular_target": "PDPK1 (Homo sapiens, UniProt O15530)", "sequence (O15530 whole entry)": "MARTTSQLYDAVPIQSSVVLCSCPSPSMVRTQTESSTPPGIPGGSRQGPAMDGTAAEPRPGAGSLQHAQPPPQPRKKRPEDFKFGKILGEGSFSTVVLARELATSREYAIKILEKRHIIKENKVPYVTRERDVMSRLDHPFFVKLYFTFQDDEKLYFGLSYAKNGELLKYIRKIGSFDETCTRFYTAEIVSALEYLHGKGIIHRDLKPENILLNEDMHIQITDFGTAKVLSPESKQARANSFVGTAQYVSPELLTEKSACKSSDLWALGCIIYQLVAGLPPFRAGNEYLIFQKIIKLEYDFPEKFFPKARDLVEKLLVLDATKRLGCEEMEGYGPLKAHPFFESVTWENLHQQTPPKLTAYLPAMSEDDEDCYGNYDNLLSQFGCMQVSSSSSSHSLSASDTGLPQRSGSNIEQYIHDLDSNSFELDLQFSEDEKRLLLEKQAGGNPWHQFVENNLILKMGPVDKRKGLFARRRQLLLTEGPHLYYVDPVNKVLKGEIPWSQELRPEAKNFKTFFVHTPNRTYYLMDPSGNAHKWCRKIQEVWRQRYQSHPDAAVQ"}, "GRK2": {"molecular_target": "T13, GRK2 (Homo sapiens, UniProt P25098)", "T13 construct": "purchased Eurofins DiscoverX Corporation"}, "CAMK2G": {"molecular_target": "T14, CAMK2G (Homo sapiens, UniProt Q13555)", "T14 construct": "purchased Eurofins DiscoverX Corporation (KINOMEscan)"}, "KIT(V559D+V654A)": {"molecular_target": "T15, KIT(V559D+V654A) (Homo sapiens, UniProt P10721, V559D/V654A)", "T15 construct": "purchased Eurofins DiscoverX Corporation"}, "EPHB6": {"molecular_target": "EPHB6 (Homo sapiens, UniProt O15197)"}, "GSK3A": {"molecular_target": "T16, GSK3A (Homo sapiens, UniProt P49840)", "T16 construct": "purchased Eurofins DiscoverX Corporation"}, "PHKG2": {"molecular_target": "PHKG2 (Homo sapiens, UniProt P15735)", "sequence (P15735 whole entry)": "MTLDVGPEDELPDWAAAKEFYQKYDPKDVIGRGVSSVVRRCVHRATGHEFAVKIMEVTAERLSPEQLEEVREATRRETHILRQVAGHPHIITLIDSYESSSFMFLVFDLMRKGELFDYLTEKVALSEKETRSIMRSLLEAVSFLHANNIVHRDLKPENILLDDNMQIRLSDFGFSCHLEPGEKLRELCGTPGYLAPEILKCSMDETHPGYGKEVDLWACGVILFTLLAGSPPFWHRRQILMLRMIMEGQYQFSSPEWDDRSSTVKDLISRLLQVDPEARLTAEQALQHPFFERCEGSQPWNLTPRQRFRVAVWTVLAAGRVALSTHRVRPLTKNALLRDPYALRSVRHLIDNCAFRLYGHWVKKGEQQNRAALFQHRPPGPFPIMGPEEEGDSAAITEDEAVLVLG"}, "AURKC": {"molecular_target": "AURKC (Homo sapiens, UniProt Q9UQB9)"}, "PCTK2": {"molecular_target": "PCTK2 (Homo sapiens, UniProt Q00537)"}, "MTOR": {"molecular_target": "T17, MTOR (Homo sapiens, UniProt P42345)", "T17 construct": "purchased Eurofins DiscoverX Corporation"}, "HIPK1": {"molecular_target": "T18, HIPK1 (Homo sapiens, UniProt Q86Z02)", "T18 construct": "purchased Eurofins DiscoverX Corporation"}, "DAPK3": {"molecular_target": "T19, DAPK3 (Homo sapiens, UniProt O43293)", "T19 construct": "purchased Eurofins DiscoverX Corporation"}, "EPHA7": {"molecular_target": "EPHA7 (Homo sapiens, UniProt Q15375)"}, "SNARK": {"molecular_target": "SNARK (Homo sapiens, UniProt Q9H093)"}, "MAP3K15": {"molecular_target": "T20, MAP3K15 (Homo sapiens, UniProt Q6ZN16)", "T20 construct": "purchased Eurofins DiscoverX Corporation", "T20 sequence (Q6ZN16 whole entry)": "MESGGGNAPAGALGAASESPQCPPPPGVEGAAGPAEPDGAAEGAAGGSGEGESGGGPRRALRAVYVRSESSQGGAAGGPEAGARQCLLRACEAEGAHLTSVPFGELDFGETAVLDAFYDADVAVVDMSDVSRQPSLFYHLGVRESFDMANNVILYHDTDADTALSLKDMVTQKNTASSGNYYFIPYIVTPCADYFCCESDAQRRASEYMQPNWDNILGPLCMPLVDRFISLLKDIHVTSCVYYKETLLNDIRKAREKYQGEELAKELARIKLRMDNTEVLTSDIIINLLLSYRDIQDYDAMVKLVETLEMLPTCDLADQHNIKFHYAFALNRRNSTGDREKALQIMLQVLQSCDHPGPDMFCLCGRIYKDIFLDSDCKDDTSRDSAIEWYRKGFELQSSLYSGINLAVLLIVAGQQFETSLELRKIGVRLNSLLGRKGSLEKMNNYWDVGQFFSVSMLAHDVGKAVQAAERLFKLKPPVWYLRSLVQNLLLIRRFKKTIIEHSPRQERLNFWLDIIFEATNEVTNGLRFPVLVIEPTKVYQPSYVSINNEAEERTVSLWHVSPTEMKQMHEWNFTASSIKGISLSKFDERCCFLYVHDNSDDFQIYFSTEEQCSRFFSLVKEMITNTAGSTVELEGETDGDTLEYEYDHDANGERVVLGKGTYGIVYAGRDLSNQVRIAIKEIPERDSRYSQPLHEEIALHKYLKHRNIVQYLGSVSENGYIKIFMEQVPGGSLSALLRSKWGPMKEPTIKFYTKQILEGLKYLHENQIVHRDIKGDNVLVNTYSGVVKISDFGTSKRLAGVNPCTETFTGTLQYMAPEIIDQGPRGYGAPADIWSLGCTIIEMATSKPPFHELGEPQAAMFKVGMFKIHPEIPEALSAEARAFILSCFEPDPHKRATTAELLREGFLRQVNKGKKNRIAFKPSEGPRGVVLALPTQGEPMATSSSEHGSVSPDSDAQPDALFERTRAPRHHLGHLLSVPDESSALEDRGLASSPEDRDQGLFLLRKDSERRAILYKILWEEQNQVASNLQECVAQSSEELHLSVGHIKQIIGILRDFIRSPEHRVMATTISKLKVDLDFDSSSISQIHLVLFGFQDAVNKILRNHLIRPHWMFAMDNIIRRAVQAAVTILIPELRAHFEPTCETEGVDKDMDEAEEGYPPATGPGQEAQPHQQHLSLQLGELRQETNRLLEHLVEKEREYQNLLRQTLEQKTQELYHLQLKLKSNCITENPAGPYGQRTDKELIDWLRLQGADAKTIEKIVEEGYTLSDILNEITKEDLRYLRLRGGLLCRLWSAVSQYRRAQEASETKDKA"}, "FLT4": {"molecular_target": "T21, FLT4 (Homo sapiens, UniProt P35916)", "T21 construct": "purchased Eurofins DiscoverX Corporation"}, "PKNB(M.tuberculosis)": {"molecular_target": "PKNB(M.tuberculosis) (Mycobacterium tuberculosis, UniProt P9WI81)", "sequence (P9WI81 whole entry)": "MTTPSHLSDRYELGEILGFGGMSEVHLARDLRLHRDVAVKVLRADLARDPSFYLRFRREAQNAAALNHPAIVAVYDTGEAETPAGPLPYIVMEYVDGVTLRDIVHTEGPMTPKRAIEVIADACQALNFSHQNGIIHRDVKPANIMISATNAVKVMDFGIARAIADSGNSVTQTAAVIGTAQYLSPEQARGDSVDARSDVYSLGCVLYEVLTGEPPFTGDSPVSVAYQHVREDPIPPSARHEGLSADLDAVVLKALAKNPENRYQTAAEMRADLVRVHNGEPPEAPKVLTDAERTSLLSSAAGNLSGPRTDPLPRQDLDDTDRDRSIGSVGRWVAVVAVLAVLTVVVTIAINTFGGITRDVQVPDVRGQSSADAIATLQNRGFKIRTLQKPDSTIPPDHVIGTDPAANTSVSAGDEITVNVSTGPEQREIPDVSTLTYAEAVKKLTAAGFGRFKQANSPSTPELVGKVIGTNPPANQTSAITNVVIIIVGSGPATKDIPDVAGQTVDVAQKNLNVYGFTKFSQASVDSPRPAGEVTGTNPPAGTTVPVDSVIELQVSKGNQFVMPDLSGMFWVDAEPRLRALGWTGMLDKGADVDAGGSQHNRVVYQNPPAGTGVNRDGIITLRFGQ"}, "[4]": {"molecular_target": "RSK4(Kin.Dom.1-N-terminal) (Homo sapiens, UniProt Q9UK32)"}, "LOK": {"molecular_target": "T22, LOK (Homo sapiens, UniProt O94804)", "T22 construct": "purchased Eurofins DiscoverX Corporation"}}}
{"smiles": "C=CC(=O)Nc1ccc(OC)c(Nc2cc(-c3[nH]c(CC)nc3-c3cccc(NC(=O)c4cccc5c4NC(=O)c4ccccc4N5)c3)ccn2)c1", "note": "[Compound 4]", "values": [{"measurement": "POC", "setting": "OSR1", "result": "89% of control"}, {"measurement": "POC", "setting": "PRKR", "result": "87% of control"}, {"measurement": "POC", "setting": "RIPK5", "result": "79% of control"}, {"measurement": "POC", "setting": "[1]", "result": "67% of control"}, {"measurement": "POC", "setting": "[2]", "result": "80% of control"}, {"measurement": "POC", "setting": "MARK4", "result": "92% of control"}, {"measurement": "POC", "setting": "SLK", "result": "100% of control"}, {"measurement": "POC", "setting": "INSRR", "result": "87% of control"}, {"measurement": "POC", "setting": "MST3", "result": "73% of control"}, {"measurement": "POC", "setting": "[3]", "result": "100% of control"}, {"measurement": "POC", "setting": "IRAK1", "result": "85% of control"}, {"measurement": "POC", "setting": "STK16", "result": "100% of control"}, {"measurement": "POC", "setting": "KIT(A829P)", "result": "56% of control"}, {"measurement": "POC", "setting": "CSNK1G3", "result": "98% of control"}, {"measurement": "POC", "setting": "JNK3", "result": "53% of control"}, {"measurement": "POC", "setting": "TSSK1B", "result": "95% of control"}, {"measurement": "POC", "setting": "ERK1", "result": "99% of control"}, {"measurement": "POC", "setting": "EGFR(G719S)", "result": "13% of control"}, {"measurement": "POC", "setting": "CAMK2D", "result": "88% of control"}, {"measurement": "POC", "setting": "MAP3K4", "result": "100% of control"}, {"measurement": "POC", "setting": "ANKK1", "result": "87% of control"}, {"measurement": "POC", "setting": "NEK6", "result": "100% of control"}, {"measurement": "POC", "setting": "MET(M1250T)", "result": "89% of control"}, {"measurement": "POC", "setting": "PDPK1", "result": "84% of control"}, {"measurement": "POC", "setting": "GRK2", "result": "100% of control"}, {"measurement": "POC", "setting": "CAMK2G", "result": "100% of control"}, {"measurement": "POC", "setting": "KIT(V559D+V654A)", "result": "93% of control"}, {"measurement": "POC", "setting": "EPHB6", "result": "100% of control"}, {"measurement": "POC", "setting": "GSK3A", "result": "65% of control"}, {"measurement": "POC", "setting": "PHKG2", "result": "73% of control"}, {"measurement": "POC", "setting": "AURKC", "result": "100% of control"}, {"measurement": "POC", "setting": "PCTK2", "result": "100% of control"}, {"measurement": "POC", "setting": "MTOR", "result": "100% of control"}, {"measurement": "POC", "setting": "HIPK1", "result": "51% of control"}, {"measurement": "POC", "setting": "DAPK3", "result": "62% of control"}, {"measurement": "POC", "setting": "EPHA7", "result": "100% of control"}, {"measurement": "POC", "setting": "SNARK", "result": "100% of control"}, {"measurement": "POC", "setting": "MAP3K15", "result": "74% of control"}, {"measurement": "POC", "setting": "FLT4", "result": "100% of control"}, {"measurement": "POC", "setting": "PKNB(M.tuberculosis)", "result": "97% of control"}, {"measurement": "POC", "setting": "[4]", "result": "100% of control"}, {"measurement": "POC", "setting": "LOK", "result": "49% of control"}]}
